Assay results reported in patent publication US12678507B2, “Protein tyrosine kinase 6 (PTK6) degradation / disruption compounds and methods of use” (Icahn School of Medicine at Mount Sinai, priority 2018, dated 2026).

Experiments:
[1] = test system: MCF7 cells; assay: 3D Cell Titer Glo viability of MCF7 ER+ breast cancer cells; format: cell-based; settings: 0, 1, 2 and 5 μM, 4 days, 3D Cell Titer Glo (FIG. 7)
Method: FIG. 7a. PTK6 degrader treatment suppresses growth of ER+ breast cancer cells. ER+ breast cancer cells (MCF-7) were treated with indicated concentrations of top candidate degraders, negative control compounds or PTK6 kinase activity inhibitor for 24 hours, lysed and proteins were resolved by SDS-PAGE. PTK6 expression was interrogated by Western analysis. FIG. 7b. MCF-7 cells were seeded into 3D Matrigel cultures and treated with indicated PTK6 degraders or PTK6 kinase inhibitor for 4 days. Viability was quantified using 3-D Cell Titer glo (Promega).
MCF7 cells were treated with YX39-103, YX39-105, and compound 21d at 0, 1, 2 and 5 μM for 4 days using 3D Cell Titer Glo (Promega) assay conditions.
MDA-MB231, MCF-7, OV2008 and Hey C2 cells (3,000 cells) were added to 8-well chamber slides (BD Biosciences) coated with 50 μl of growth factor-reduced Matrigel™ Matrix basement membrane (Corning). Treatment with degrader was begun later the same day. Media was replaced every 3 days. Cells were imaged using the Axiovert 25 inverted microscope (Carl Zeiss AB). CellTiter-Glo 3D Cell Viability Assay (Promega) was used to quantitate viability of cells grown in Matrigel™ in 96-well plates.

[2] = test system: MDA-MB231 cells; assay: 3D Matrigel culture of MDA-MB231 triple negative breast cancer cells (growth, invasive branching, viability); format: cell-based; settings: 1 μM, 3 days, 3D cultures (FIG. 6)
Method: FIG. 6a. PTK6 degraders, but not kinase activity inhibitor suppress viability in 3D cultures. MDA-MB231 triple negative breast cancer cells were seeded into 3D Matrigel cultures (4×10^3 cells/well) and treated with indicated PTK6 degraders, negative control compounds or PTK6 kinase activity inhibitor at 1 uM for 5 days with re-feeding of compound after 3 days in culture. Viability was assessed using 3D Cell Titer glo (Promega). FIG. 6b. Expression of PTK6 in cells treated with PTK6 degraders, negative control compounds or PTK6 kinase activity inhibitor was assessed after 24 hour treatment in monolayer cultures with 1 uM of compound. Cells were lysed and proteins were resolved and probed with anti-PTK6 antibody (Cell Signaling)
FIG. 12a. […] Expression of PTK6 in cells treated with PTK6 degraders, negative control compounds or PTK6 kinase activity inhibitor was assessed after 24 hour treatment in monolayer cultures with 1 uM of compound. […] Viability was assessed using 3D Cell Titer glo (Promega). […]
MDA-MB231 triple negative breast cancer cells were seeded into 3D Matrigel cultures (4×10^3 cells/well) and treated with indicated PTK6 degraders, negative control compounds or PTK6 kinase activity inhibitor at 1 uM for 6 days with re-feeding of compound after 3 days in culture (FIG. 12B). Viability was assessed using 3D Cell Titer glo (Promega). […]

[3] = biological target: T1, PTK6 (Homo sapiens, UniProt Q13882); assay: Western blot of PTK6 protein levels in MDA-MB231 cells; format: cell-based; settings: MDA-231 (MDA-MB231) cells, 500 nM, 24 hours, Western blot (FIGS. 3-5)
T1 construct: endogenous in cells; host or cells: MDA-MB231 cells (ATCC)
T1 sequence (Q13882 whole entry): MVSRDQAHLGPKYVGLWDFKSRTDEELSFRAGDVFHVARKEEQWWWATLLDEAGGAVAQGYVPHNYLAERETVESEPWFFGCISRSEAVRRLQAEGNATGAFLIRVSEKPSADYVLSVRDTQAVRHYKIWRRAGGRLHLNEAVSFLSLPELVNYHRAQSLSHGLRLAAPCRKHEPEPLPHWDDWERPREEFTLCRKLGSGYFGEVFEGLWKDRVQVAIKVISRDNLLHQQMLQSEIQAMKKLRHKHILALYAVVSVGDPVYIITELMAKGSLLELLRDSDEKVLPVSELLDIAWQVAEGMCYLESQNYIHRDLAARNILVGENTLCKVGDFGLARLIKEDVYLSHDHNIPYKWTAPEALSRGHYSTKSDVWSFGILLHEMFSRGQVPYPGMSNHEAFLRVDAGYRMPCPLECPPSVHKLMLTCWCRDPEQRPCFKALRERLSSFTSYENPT
Method: FIGS. 2-5. Effects of exemplary compounds on reducing PTK6 protein levels in breast cancer cells. Triple negative MDA-MB231 cells were treated for 24 hours with 500 nM, 2 uM or 2.5 uM of test compound and lysed. Proteins were resolved by SDS/PAGE and immunoblotted with antibody to PTK6 (Santa Cruz, Cell Signaling) or GAPDH loading control (Cell Signaling).
FIG. 13. PTK6 degraders suppress PTK6 expression. MDA-MB231 cells were treated with compounds (500 nM or 1 uM) for 24 hours in monolayer cultures. Cells were lysed and lysates were probed with anti-PTK6 antibody.
MDA-MB231 cells were treated with DMSO or indicated compounds at 2.5 uM, 2 uM or 500 nM for 24 hours.
MDA-MB231 cells were treated with compounds (500 nM or 1 uM) for 24 hours in monolayer cultures. Cells were lysed and lysates were probed with anti-PTK6 antibody.
(§1) Cells were lysed in 1% NP-40 lysis buffer containing NaF, Na3VO4, Leupeptin, PMSF, aprotinin, and phosphatase inhibitor (PhosSTOP, Roche) as described previously (Irie et al., 2010). Cleared cell lysates were stored at −80° C. and were analyzed by western analysis as described previously (Irie et al., 2010).

[4] = test system: CP70 cells; assay: 3D culture viability of platinum resistant ovarian cancer cells CP70; format: cell-based; settings: 2 uM, 6 days, 3D culture (FIG. 8)
Method: FIG. 8. Treatment with PTK6 degraders, but not kinase activity inhibitor, suppress viability of chemotherapy-resistant ovarian cancer cells (CP70). Cells were seeded into 3D Matrigel cultures and treated with compounds (2 uM) for 6 days. Viability was assessed using 3D Cell Titre glo assay (Promega)
Platinum resistant ovarian cancer cells CP70 were treated with PTK6 degrader or kinase inhibitor P21d (2 uM) for 6 days in 3D culture. Viability after 6 days was assessed by 3D Cell Titer glo.

[5] = biological target: T1, PTK6; assay: PTK6 degradation after MG132 proteasome inhibitor pretreatment (Western); format: cell-based; settings: MDA-MB231 cells, MG132 10 uM 2 hours, then degrader 4 hours (FIG. 9)
Method: FIG. 9. PTK6 degrader suppresses PTK6 expression in a proteasome-dependent manner. MDA-MB231 cells (left) or OV2008 cells (right) were pre-treated with DMSO or MG-132 (10 uM) for two hours, then treated for an additional 4 hours with DMSO or PTK6 degrader at the indicated concentrations.
MDA-MB231 cells were pre-treated with MG132 (10 uM) or DMSO for 2 hours, then treated for additional 4 hours with PTK6 degrader YX39-105 or DMSO. Cells were lysed and expression of PTK6 was assessed by Western analysis.
as §1

[6] = biological target: T1, PTK6; assay: PTK6 degradation after PTK6 kinase inhibitor P21d pretreatment (Western); format: cell-based; settings: MDA-MB231 cells, P21d 5 uM 2 hours, then degrader 24 hours (FIG. 10)
Method: FIG. 10. PTK6 kinase activity inhibitor pre-treatment prevents PTK6 degrader-dependent suppression of PTK6 expression. MDA-MB231 cells in monolayer cultures were pre-treated with DMSO or PTK6 kinase activity inhibitor (5 uM), then treated for an additional 24 hours with PTK6 degrader, YX39-105. Cells were lysed and expression of PTK6 was assessed by Western analysis.
MDA-MB231 cells pretreated with DMSO or PTK6 kinase activity inhibitor, P21d, (5 uM) for 2 hours were subsequently treated with PTK6 degrader YX39-105 for 24 hours. Expression of PTK6 was assessed by Western analysis.
as §1

[7] = test system: TNBC cells; settings: compared with PTK6 shRNA; cited from earlier work
[8] = compared with shRNA, all cell lines evaluated; cited from earlier work

Row | PTK6 degradation with MG132 pretreatment [5] | PTK6 degradation with PTK6 inhibitor pretreatment [6] | SMILES | viability of MCF7 cells [1] | growth and invasive branching in 3D cultures [2] | reducing PTK6 protein levels / suppress PTK6 expression [3] | viability of chemotherapy-resistant ovarian cells (CP70) [4] | EMT regulation of TNBC cells [7] | 3D growth [8]
1 | – | – | Cc1ncsc1-c1ccc(CNC(=O)[C@@H]2C[C@@H](O)CN2C(=O)[C@@H](NC(=O)CCCCCCNC(=O)CN2CCN(C(=O)c3ccc(Nc4nc(C5CC5)cn5c(-c6cn[nH]c6)cnc45)c(F)c3)CC2)C(C)(C)C)cc1 [YX39-103, (2S,4R)-1-((S)-2-(7-(2-(4-(4-((6-cyclopropyl-3-(1H-pyrazol-4-yl)imidazo[1,2-a]pyrazin-8-yl)amino)-3-fluorobenzoyl)piperazin-1-yl)acetamido)heptanamido)-3,3-dimethylbutanoyl)-4-hydroxy-N-(4-(4-methylthiazol-5-yl)benzyl)pyrrolidine-2-carboxamide] | significantly impaired viability of MCF7 cells in a dose-dependent manner | significantly suppressed growth and invasive branching | effective in reducing PTK6 protein levels | Suppressed Viability | – | –
2 | Prevents PTK6 from being Degraded | Prevents PTK6 from being Degraded | Cc1ncsc1-c1ccc(CNC(=O)[C@@H]2C[C@@H](O)CN2C(=O)[C@@H](NC(=O)CCCCCCCCNC(=O)CN2CCN(C(=O)c3ccc(Nc4nc(C5CC5)cn5c(-c6cn[nH]c6)cnc45)c(F)c3)CC2)C(C)(C)C)cc1 [YX39-105, (2S,4R)-1-((S)-2-(9-(2-(4-(4-((6-cyclopropyl-3-(1H-pyrazol-4-yl)imidazo[1,2-a]pyrazin-8-yl)amino)-3-fluorobenzoyl)piperazin-1-yl)acetamido)nonanamido)-3,3-dimethylbutanoyl)-4-hydroxy-N-(4-(4-methylthiazol-5-yl)benzyl)pyrrolidine-2-carboxamide] | significantly impaired viability of MCF7 cells in a dose-dependent manner | significantly suppressed growth and invasive branching | effective in reducing PTK6 protein levels | Suppressed Viability | – | –
3 | – | – | O=C(c1ccc(Nc2nc(C3CC3)cn3c(-c4cn[nH]c4)cnc23)c(F)c1)N1CCOCC1 [compound 21d] | – | – | – | – | phenocopied the effects of PTK6 shRNA | did not consistently phenocopy the effects of shRNA
